Results on 21 compounds are retold here after US8404708B2, “Dual NK1/NK3 receptor antagonists” (Hoffmann-La Roche Inc., priority 2004, dated 2013).

Where two headings read alike, the source gives them in different places.

The target of assay [1] is T1, Recombinant human NK3 (hNK3) receptor (Homo sapiens, UniProt P29371).
T1 construct: expressed in transfected cells
T1 sequence (P29371 1-465): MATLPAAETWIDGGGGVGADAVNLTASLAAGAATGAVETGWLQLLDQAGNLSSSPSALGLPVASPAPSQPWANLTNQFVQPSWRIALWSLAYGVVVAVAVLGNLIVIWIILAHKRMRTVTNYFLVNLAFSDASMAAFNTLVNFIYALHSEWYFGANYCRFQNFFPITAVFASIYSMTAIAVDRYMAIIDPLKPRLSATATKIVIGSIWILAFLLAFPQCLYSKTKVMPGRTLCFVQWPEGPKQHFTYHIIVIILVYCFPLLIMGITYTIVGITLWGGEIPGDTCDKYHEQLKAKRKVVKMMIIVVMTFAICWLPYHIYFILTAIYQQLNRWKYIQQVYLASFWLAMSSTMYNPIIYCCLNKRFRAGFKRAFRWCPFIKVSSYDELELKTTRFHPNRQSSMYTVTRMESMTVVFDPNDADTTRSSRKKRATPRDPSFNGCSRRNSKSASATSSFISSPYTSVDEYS
The experiment in a line: NK3 receptor binding, [3H]SR142801 displacement, membrane preparations. The procedure, abridged: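 hNK3 membranes (~2.5 μg/well) incubated 90 min at room temperature in 50 mM Tris-HCl pH 7.4 with 0.1% BSA, 4 mM MnCl2, 1 μM phosphoramidon. Nonspecific binding defined with 10 μM SB222200; bound [3H]SR142801 separated by filtration on PEI-soaked GF/C filters and counted by scintillation.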

The target in the next assay is human NK1 receptor (Homo sapiens, UniProt P25103). The experiment in a line: NK1 receptor binding, [3H]substance P displacement, CHO cell membranes.
The mark [2] stands for this setting: second value of the cell pKi NK1/NK3, hNK3 receptor, [3H]SR142801.
[3] abbreviates: first value of the cell pKi NK1/NK3, human NK1 receptor, [3H]substance P.
Where [4] appears, read: first value of the cell NK1/NK3, read-out: pKi NK1 (converted).
Where [5] appears, read: second value of the cell NK1/NK3, read-out: pKi NK3 (converted).

human NK1 receptor, sequence (P25103 whole entry): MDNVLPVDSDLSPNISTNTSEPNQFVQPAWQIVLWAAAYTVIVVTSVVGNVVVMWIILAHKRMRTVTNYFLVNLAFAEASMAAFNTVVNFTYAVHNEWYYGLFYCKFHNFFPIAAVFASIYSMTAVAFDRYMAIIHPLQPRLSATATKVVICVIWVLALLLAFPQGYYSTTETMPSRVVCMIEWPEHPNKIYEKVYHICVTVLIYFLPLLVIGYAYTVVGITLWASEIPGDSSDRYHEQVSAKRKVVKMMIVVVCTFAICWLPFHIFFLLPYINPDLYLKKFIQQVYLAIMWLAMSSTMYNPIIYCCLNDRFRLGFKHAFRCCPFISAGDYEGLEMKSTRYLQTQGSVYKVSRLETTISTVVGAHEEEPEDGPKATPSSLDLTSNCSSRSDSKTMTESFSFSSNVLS

For the compound `C[C@H](O)CNc1cc(-c2ccccc2Cl)c(N(C)C(=O)C(C)(C)c2cc(C(F)(F)F)cc(C(F)(F)F)c2)cn1` [Example 72, (S)-2-(3,5-Bis-trifluoromethyl-phenyl)-N-[4-(2-chloro-phenyl)-6-(2-hydroxy-propylamino)-pyridin-3-yl]-N-methyl-isobutyramide], the figures for the Ki (in assay [1] (setting [2]); at human NK1 receptor (setting [3])) were 26.3 nM and 0.724 nM, respectively.

Turning to `Cc1cc(F)ccc1-c1cc(N2C[C@@H](F)C[C@H]2CO)ncc1N(C)C(=O)C(C)(C)c1cc(C(F)(F)F)cc(C(F)(F)F)c1` [Example 298, (2S,4S)-2-(3,5-Bis-trifluoromethyl-phenyl)-N-[6-(4-fluoro-2-hydroxymethyl-pyrrolidin-1-yl)-4-(4-fluoro-2-methyl-phenyl)-pyridin-3-yl]-N-methyl-isobutyramide], in assay [1] (second value of the cell NK1/NK3), the pKi NK3 turned out to be 9.15. The Ki on human NK1 receptor (setting [4]) is 1.55 nM.

Regarding `CN(C(=O)C(C)(C)c1cc(C(F)(F)F)cc(C(F)(F)F)c1)c1cnc(N[C@H]2CC[C@H](O)CC2)cc1-c1ccccc1Br` [Example 132, trans-2-(3,5-Bis-trifluoromethyl-phenyl)-N-[4-(2-bromo-phenyl)-6-(4-hydroxy-cyclohexylamino)-pyridin-3-yl]-N-methyl-isobutyramide], the Ki in assay [1] (setting [2]) is 7.24 nM; at human NK1 receptor (setting [3]), 1.32 nM.

As for `CN(C(=O)C(C)(C)c1cc(C(F)(F)F)cc(C(F)(F)F)c1)c1cnc(N2CC[C@@H](O)[C@@H](CO)C2)cc1-c1ccccc1Cl` (racemic) [Example 194, (3RS,4RS)-2-(3,5-Bis-trifluoromethyl-phenyl)-N-[4′-(2-chloro-phenyl)-4-hydroxy-3-hydroxymethyl-3,4,5,6-tetrahydro-2H-[1,2′]bipyridinyl-5′-yl]-N-methyl-isobutyramide], the figures for the Ki (in assay [1] (setting [2]); on human NK1 receptor (setting [3])) were 17.4 nM and 1.66 nM, respectively.

Turning to `CCN(C(C)=O)[C@@H]1CCN(c2cc(-c3ccc(F)cc3C)c(N(C)C(=O)C(C)(C)c3cc(C(F)(F)F)cc(C(F)(F)F)c3)cn2)C1` [Example 102, (R)-N-[6-[3-(Acetyl-ethyl-amino)-pyrrolidin-1-yl]-4-(4-fluoro-2-methyl-phenyl)-pyridin-3-yl]-2-(3,5-bis-trifluoromethyl-phenyl)-N-methyl-isobutyramide], the Ki was 13.2 nM in assay [1] (setting [2]) and 1.95 nM at human NK1 receptor (setting [3]).

Regarding `CN(C(=O)C(C)(C)c1cc(C(F)(F)F)cc(C(F)(F)F)c1)c1cnc(N2C[C@H](O)C[C@H]2CO)cc1-c1ccc(F)cc1F` [Example 220, (2S,4R)-2-(3,5-Bis-trifluoromethyl-phenyl)-N-[4-(2,4-difluoro-phenyl)-6-(4-hydroxy-2-hydroxymethyl-pyrrolidin-1-yl)-pyridin-3-yl]-N-methyl-isobutyramide], the figures for the Ki (in assay [1] (setting [5]); on human NK1 receptor (setting [4])) were 6.61 nM and 1.51 nM, respectively.

Regarding `CN(C(=O)C(C)(C)c1cc(C(F)(F)F)cc(C(F)(F)F)c1)c1cnc(N2CCC[C@H]2CO)cc1-c1cc(Cl)ccc1Cl` [Example 284, (S)-2-(3,5-Bis-trifluoromethyl-phenyl)-N-[4-(2,5-dichloro-phenyl)-6-(2-hydroxymethyl-pyrrolidin-1-yl)-pyridin-3-yl]-N-methyl-isobutyramide], the Ki in assay [1] (setting [5]) was 1.45 nM; at human NK1 receptor (setting [4]) it was 1.48 nM.

Regarding `COc1cc(Cl)cc(C(C)(C)C(=O)N(C)c2cnc(N3CCC[C@H]3CO)cc2-c2ccc(F)cc2C)c1` [Example 30, (S)-2-(3-Chloro-5-methoxy-phenyl)-N-[4-(4-fluoro-2-methyl-phenyl)-6-(2-hydroxymethyl-pyrrolidin-1-yl)-pyridin-3-yl]-N-methyl-isobutyramide], the Ki in assay [1] (setting [2]) is 3.55 nM; at human NK1 receptor (setting [3]), 3.72 nM.

`CN(C(=O)C(C)(C)c1cc(C(F)(F)F)cc(C(F)(F)F)c1)c1cnc(N2CCCC(O)C2)cc1-c1ccccc1Cl` (racemic) [Example 50, (RS)-2-(3,5-Bis-trifluoromethyl-phenyl)-N-[4′-(2-chloro-phenyl)-3-hydroxy-3,4,5,6-tetrahydro-2H-[1,2′]bipyridinyl-5′-yl]-N-methyl-isobutyramide]: the Ki in assay [1] (setting [2]) was 14.5 nM; on human NK1 receptor (setting [3]) it was 1.41 nM.

On to `CC(=O)N1CCCN(c2cc(-c3ccccc3Cl)c(N(C)C(=O)C(C)(C)c3cc(C(F)(F)F)cc(C(F)(F)F)c3)cn2)CC1` [Example 63, N-[6-(4-Acetyl-[1,4]diazepan-1-yl)-4-(2-chloro-phenyl)-pyridin-3-yl]-2-(3,5-bis-trifluoromethyl-phenyl)-N-methyl-isobutyramide], for which the Ki is 1.17 nM in assay [1] (setting [2]) and 1.82 nM at human NK1 receptor (setting [3]).

In the case of `C[C@@H](O)[C@H](CO)Nc1cc(-c2ccccc2Cl)c(N(C)C(=O)C(C)(C)c2cc(C(F)(F)F)cc(C(F)(F)F)c2)cn1` [Example 146, (1S,2R)-2-(3,5-Bis-trifluoromethyl-phenyl)-N-[4-(2-chloro-phenyl)-6-(2-hydroxy-1-hydroxymethyl-propylamino)-pyridin-3-yl]-N-methyl-isobutyramide], the Ki in assay [1] (setting [2]) is 11.7 nM; on human NK1 receptor (setting [3]) it was 0.891 nM.

In the case of `Cc1ccccc1-c1cc(N2C[C@H](O)C[C@H]2CO)ncc1N(C)C(=O)C(C)(C)c1cc(Cl)cc(Cl)c1` [Example 12, (2S,4R)-2-(3,5-Dichloro-phenyl)-N-[6-(4-hydroxy-2-hydroxymethyl-pyrrolidin-1-yl)-4-o-tolyl-pyridin-3-yl]-N-methyl-isobutyramide], the Ki was 1.38 nM in assay [1] (setting [2]) and 1.12 nM at human NK1 receptor (setting [3]).

Regarding `Cc1ccccc1-c1cc(N2CC[C@H](O)[C@H]2CO)ncc1N(C)C(=O)C(C)(C)c1cc(C(F)(F)F)cc(C(F)(F)F)c1` [Example 261, (2R,3S)-2-(3,5-Bis-trifluoromethyl-phenyl)-N-[6-(3-hydroxy-2-hydroxymethyl-pyrrolidin-1-yl)-4-o-tolyl-pyridin-3-yl]-N-methyl-isobutyramide], the Ki was 0.912 nM in assay [1] (setting [5]) and 1.29 nM on human NK1 receptor (setting [4]).

As to `Cc1ccccc1-c1cc(N2CCC[C@H]2CO)ncc1N(C)C(=O)C(C)(C)c1cc(C(F)(F)F)cc(C(F)(F)F)c1` [Example 279, (S)-2-(3,5-Bis-trifluoromethyl-phenyl)-N-[6-(2-hydroxymethyl-pyrrolidin-1-yl)-4-o-tolyl-pyridin-3-yl]-N-methyl-isobutyramide], the Ki in assay [1] (setting [5]) was 1.17 nM; on human NK1 receptor (setting [4]), 2.82 nM.

Consider `CN(C(=O)C(C)(C)c1cc(C(F)(F)F)cc(C(F)(F)F)c1)c1cnc(N(CCO)CCO)cc1-c1ccccc1Br` [Example 134, N-[6-[Bis-(2-hydroxy-ethyl)-amino]-4-(2-bromo-phenyl)-pyridin-3-yl]-2-(3,5-bis-trifluoromethyl-phenyl)-N-methyl-isobutyramide], for which the values for the Ki (in assay [1] (setting [2]); at human NK1 receptor (setting [3])) were 2.19 nM and 2.24 nM, respectively.

For `CN(C(=O)C(C)(C)c1cc(Cl)cc(OC(F)F)c1)c1cnc(N2CCC[C@H]2CO)cc1-c1ccccc1Cl` [Example 34, (S)-2-(3-Chloro-5-difluoromethoxy-phenyl)-N-[4-(2-chloro-phenyl)-6-(2-hydroxymethyl-pyrrolidin-1-yl)-pyridin-3-yl]-N-methyl-isobutyramide], the values for the Ki (in assay [1] (setting [2]); on human NK1 receptor (setting [3])) were 0.832 nM and 3.89 nM, respectively.

For `Cc1ccccc1-c1cc(N2C[C@H](O)C[C@H]2CO)ncc1N(C)C(=O)C(C)(C)c1cc(F)cc(F)c1` [Example 16, (2S,4R)-2-(3,5-Difluoro-phenyl)-N-[6-(4-hydroxy-2-hydroxymethyl-pyrrolidin-1-yl)-4-o-tolyl-pyridin-3-yl]-N-methyl-isobutyramide], the Ki in assay [1] (setting [2]) was 4.07 nM; on human NK1 receptor (setting [3]) it was 2.63 nM.

With `CC(=O)N[C@H]1CCN(c2cc(-c3ccccc3Cl)c(N(C)C(=O)C(C)(C)c3cc(C(F)(F)F)cc(C(F)(F)F)c3)cn2)C1` [Example 43, (S)-N-[6-(3-Acetylamino-pyrrolidin-1-yl)-4-(2-chloro-phenyl)-pyridin-3-yl]-2-(3,5-bis-trifluoromethyl-phenyl)-N-methyl-isobutyramide], the Ki in assay [1] (setting [2]) was 35.5 nM; on human NK1 receptor (setting [3]), 2.4 nM.

For the compound `Cc1ccccc1-c1cc(N(CC(C)O)CC(C)O)ncc1N(C)C(=O)C(C)(C)c1cc(C(F)(F)F)cc(C(F)(F)F)c1` (stereo not drawn) [Example 121, N-{6-[Bis-(2-hydroxy-propyl)-amino]-4-o-tolyl-pyridin-3-yl}-2-(3,5-bis-trifluoromethyl-phenyl)-N-methyl-isobutyramide], the Ki in assay [1] (setting [2]) was 11 nM; at human NK1 receptor (setting [3]) it was 2.88 nM.

`Cc1ncccc1-c1cc(N(CCO)CCO)ncc1N(C)C(=O)C(C)(C)c1cc(C(F)(F)F)cc(C(F)(F)F)c1` [Example 291, N-{6′-[Bis-(2-hydroxy-ethyl)-amino]-2-methyl-[3,4′]bipyridinyl-3′-yl}-2-(3,5-bis-trifluoromethyl-phenyl)-N-methyl-isobutyramide]: the Ki in assay [1] (setting [5]) is 7.76 nM; on human NK1 receptor (setting [4]), 3.31 nM.

`CN(C(=O)C(C)(C)c1cc(C(F)(F)F)cc(C(F)(F)F)c1)c1cnc(N2CC[C@H](O)[C@H]2CO)cc1-c1ccccc1` [Example 265, (2R,3S)-2-(3,5-Bis-trifluoromethyl-phenyl)-N-[6-(3-hydroxy-2-hydroxymethyl-pyrrolidin-1-yl)-4-phenyl-pyridin-3-yl]-N-methyl-isobutyramide]: the Ki in assay [1] (setting [5]) is 4.9 nM; at human NK1 receptor (setting [4]), 1.45 nM.
